The text below walks through data of patent US11999727B2 (Tango Therapeutics, Inc., priority 2020, dated 2024).

Experiment [1] has as its target T1, PRMT5 (Homo sapiens, UniProt O14744).
T1 construct: purchased Viva (custom protein)
Description: PRMT5 biochemical IC50 assay with no cofactor. The settings on record: PRMT5, no cofactor; read-out: No Cofactor/rel IC50. The source says:
Table 1 indicates IC50 values (μM) against PRMT5 for exemplary compounds in the presence of SAM as cofactor, with no cofactor, and with MTA as cofactor, respectively (columns 4-6). […] Ki values can be calculated from the IC50 values as described in the Examples section. As detailed in the Examples section, for the assay performed in the presence of SAM, IC50=Ki×1.5 (Ki=IC50/1.5).

For experiment [2], the target named is T1, PRMT5. The experiment in a line: PRMT5 biochemical IC50 assay with SAM as cofactor. Particulars: PRMT5, SAM as cofactor; read-out: SAM IC50.
Experiment [3] concerns the target T1, PRMT5. Description: PRMT5 biochemical IC50 assay with MTA as cofactor. Particulars: PRMT5, MTA as cofactor; read-out: MTA IC50.
In experiment [4] the test system is HAP1 MTAP-intact cell line. Description: SDMA in-cell western assay, HAP1 MTAP-intact. Type of experiment: cell-based. The settings on record: Homo sapiens, HAP1, SDMA in-cell western, HAP1 MTAP-intact; read-out: MTAP HAP1 intact IC50. A digest of the protocol:
(§1)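 Compounds were tested in HAP1 cells differing only in MTAP status (endogenous expression versus null). Cellular SDMA levels were then measured by in-cell western, giving an IC50 in each background.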

The subject of experiment [5] is HAP1 MTAP-deleted cell line. Description: SDMA in-cell western assay, HAP1 MTAP-deleted. Particulars: for IC50: Homo sapiens, HAP1, SDMA in-cell western, HAP1 MTAP-deleted; for MTAP intact/deleted ratio: IC50 ratio HAP1 MTAP-intact / HAP1 MTAP-deleted, SDMA in-cell western. Type of experiment: cell-based. Summed up:
as §1

The test system of experiment [6] is HAP1 MTAP-deleted cell line. Description: Viability assay, MTAP-deleted cell line. Format: cell-based. The settings on record: Homo sapiens, HAP1, viability assay, read-out: HAP1 MTAP deleted viability. The source says:
Table 1 additionally indicates IC50 values in a viability assay for the MTAP-deleted cell line (column 10), indicating the effect of treatment with compound on cell survival.

Where [7] appears, read: read-out: HAP1 MTAP deleted IC50.
Where [8] appears, read: read-out: HAP 1 MTAP deleted IC50.

T1 sequence (O14744 whole entry): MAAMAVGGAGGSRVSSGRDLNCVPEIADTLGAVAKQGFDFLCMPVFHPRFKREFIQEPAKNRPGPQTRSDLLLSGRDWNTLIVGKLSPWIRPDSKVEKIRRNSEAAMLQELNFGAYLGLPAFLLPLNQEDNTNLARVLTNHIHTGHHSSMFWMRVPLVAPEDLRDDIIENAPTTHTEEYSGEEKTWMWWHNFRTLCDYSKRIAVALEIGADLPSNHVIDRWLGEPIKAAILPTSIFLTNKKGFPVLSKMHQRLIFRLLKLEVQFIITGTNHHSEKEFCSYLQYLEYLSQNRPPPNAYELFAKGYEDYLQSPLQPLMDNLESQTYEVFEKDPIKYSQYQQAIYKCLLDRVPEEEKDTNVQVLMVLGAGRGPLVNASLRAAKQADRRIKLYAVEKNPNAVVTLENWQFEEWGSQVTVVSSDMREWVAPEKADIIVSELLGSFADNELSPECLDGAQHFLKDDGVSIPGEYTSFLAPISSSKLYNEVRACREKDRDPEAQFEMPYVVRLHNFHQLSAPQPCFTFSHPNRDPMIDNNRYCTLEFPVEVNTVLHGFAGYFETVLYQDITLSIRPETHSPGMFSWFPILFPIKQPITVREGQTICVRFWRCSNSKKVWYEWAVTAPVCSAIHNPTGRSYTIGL
T1 sequence (Q9BQA1 whole entry partner): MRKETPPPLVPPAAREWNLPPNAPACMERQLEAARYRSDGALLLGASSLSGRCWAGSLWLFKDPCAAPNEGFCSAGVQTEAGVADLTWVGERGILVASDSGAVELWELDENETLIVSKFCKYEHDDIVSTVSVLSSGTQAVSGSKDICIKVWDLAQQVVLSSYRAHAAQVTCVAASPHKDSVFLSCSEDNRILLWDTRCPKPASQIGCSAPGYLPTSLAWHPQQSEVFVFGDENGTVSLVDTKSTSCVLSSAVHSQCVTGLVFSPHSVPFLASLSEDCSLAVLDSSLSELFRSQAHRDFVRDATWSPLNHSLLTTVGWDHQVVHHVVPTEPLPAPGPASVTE

On to `Cc1cc(NC(=O)C(=O)N2C[C@@H](C)CC(F)(F)[C@@H]2c2ccc(F)cc2)cnc1N` (racemic) [Compound 871, N-(6-amino-5-methyl-3-pyridyl)-2-[(2S,5S)-3,3-difluoro-2-(4-fluorophenyl)-5-methyl-1-piperidyl]-2-oxo-acetamide], for which the IC50 in experiment [1] is 50 to 500 nM; in experiment [2], 50 to 500 nM; in experiment [3], less than 50 nM; in experiment [4], 100 to 1000 nM; in experiment [5] (setting [7]) it was less than 100 nM; in experiment [6] (HAP1 MTAP-deleted), 1000 to 10000 nM. Moreover, the MTAP intact/deleted ratio entry in experiment [5] is on record as “B (an IC50 ratio greater than or equal to 3 fold but lower than 10 fold)”.

As to `C[C@@H]1CC[C@@H](c2ccc(F)cc2)N(C(=O)C(=O)Nc2cnc(N)c(C(F)(F)F)c2)C1` (racemic) [Compound 872, N-[6-Amino-5-(trifluoromethyl)-3-pyridyl]-2-[(2S,5R)-2-(4-fluorophenyl)-5-methyl-1-piperidyl]-2-oxo-acetamide], the IC50 in experiment [1] is 50 to 500 nM; in experiment [2], more than 500 nM; in experiment [3], 50 to 500 nM; in experiment [4], more than 1000 nM; in experiment [5] (setting [7]) it was 100 to 1000 nM; in experiment [6] (HAP1 MTAP-deleted), 1000 to 10000 nM. Besides, the MTAP intact/deleted ratio result in experiment [5] is on record as “A (an IC50 ratio greater than or equal to 10 fold)”.

In the case of `C[C@@H]1C[C@H](F)[C@@H](c2ccc(F)cc2)N(C(=O)C(=O)Nc2cncc(C(N)=O)c2)C1` (racemic) [Compound 879, 5-[[2-[(2R,3S,5R)-3-fluoro-2-(4-fluorophenyl)-5-methyl-1-piperidyl]-2-oxo-acetyl]amino]pyridine-3-carboxamide], the IC50 in experiment [1] is 50 to 500 nM; in experiment [2], 50 to 500 nM; in experiment [3], less than 50 nM; in experiment [4], more than 1000 nM; in experiment [5] (setting [7]), 100 to 1000 nM; in experiment [6] (HAP1 MTAP-deleted), 1000 to 10000 nM. Also, the MTAP intact/deleted ratio entry in experiment [5] is “A (an IC50 ratio greater than or equal to 10 fold)”.

Consider `Cc1ccc([C@@H]2CC[C@H](C)CN2C(=O)C(=O)Nc2cncc(C(N)=O)c2)nc1` (racemic) [Compound 880, 5-[[2-[(2R,5R)-5-Methyl-2-(5-methyl-2-pyridyl)-1-piperidyl]-2-oxo-acetyl]amino]pyridine-3-carboxamide], for which the IC50 in experiment [1] was more than 500 nM; in experiment [2], more than 500 nM; in experiment [3], 50 to 500 nM; in experiment [4] it was more than 1000 nM; in experiment [5] (setting [7]), 100 to 1000 nM; in experiment [6] (HAP1 MTAP-deleted), more than 10000 nM. Further, in experiment [5], the MTAP intact/deleted ratio result is given as “A (an IC50 ratio greater than or equal to 10 fold)”.

For `COc1ncc(NC(=O)C(=O)N2C[C@@H](C)CC[C@H]2c2ccc(C)cn2)cc1C(N)=O` (racemic) [Compound 886, 2-Methoxy-5-[[2-[(2R,5R)-5-methyl-2-(5-methyl-2-pyridyl)-1-piperidyl]-2-oxo-acetyl]amino]pyridine-3-carboxamide], the IC50 is more than 500 nM in experiment [1]; more than 500 nM in experiment [2]; 50 to 500 nM in experiment [3]; more than 1000 nM in experiment [4]; more than 1000 nM in experiment [5] (setting [8]); more than 10000 nM in experiment [6] (MTAP-deleted cell line). In experiment [5], the MTAP intact/deleted ratio entry is listed as “B (an IC50 ratio greater than or equal to 3 fold but lower than 10 fold)”.

Consider `C[C@@H]1CC[C@@H](c2cnc3c(c2)CCC(=O)N3)N(C(=O)C(=O)Nc2cncc(C(N)=O)c2)C1` (racemic) [Compound 888, rac-5-[[2-[(2S,5R)-5-Methyl-2-(7-oxo-6,8-dihydro-5H-1,8-naphthyridin-3-yl)-1-piperidyl]-2-oxo-acetyl]amino]pyridine-3-carboxamide], for which the IC50 in experiment [1] was 50 to 500 nM; in experiment [2], 50 to 500 nM; in experiment [3] it was 50 to 500 nM; in experiment [4], more than 1000 nM; in experiment [5] (setting [8]), more than 1000 nM; in experiment [6] (MTAP-deleted cell line), more than 10000 nM. For the same compound, in experiment [5], the MTAP intact/deleted ratio result was “C (an IC50 ratio of less than 3 fold)”.

As to `C[C@@H]1CC[C@@H](c2ccc(F)cc2)N(C(=O)C(=O)Nc2cnc(OC(F)F)c(C(N)=O)c2)C1` (racemic) [Compound 889, 2-(difluoromethoxy)-5-(2-(2-(4-fluorophenyl)-5-methylpiperidin-1-yl)-2-oxoacetamido)nicotinamide], the IC50 in experiment [1] is 50 to 500 nM; in experiment [2], more than 500 nM; in experiment [3], 50 to 500 nM; in experiment [4], more than 1000 nM; in experiment [5] (setting [8]) it was more than 1000 nM; in experiment [6] (MTAP-deleted cell line), more than 10000 nM. For the same compound, the MTAP intact/deleted ratio entry in experiment [5] is “B (an IC50 ratio greater than or equal to 3 fold but lower than 10 fold)”.

As to `COc1ncc(NC(=O)C(=O)N2C[C@@H](C)CC[C@@H]2c2cnc3c(c2)CCC(=O)N3)cc1C(N)=O` (racemic) [Compound 891, rac-2-Methoxy-5-[[2-[(2S,5R)-5-methyl-2-(7-oxo-6,8-dihydro-5H-1,8-naphthyridin-3-yl)-1-piperidyl]-2-oxo-acetyl]amino]pyridine-3-carboxamide], the IC50 in experiment [1] was 50 to 500 nM; in experiment [2], 50 to 500 nM; in experiment [3], 50 to 500 nM; in experiment [4] it was more than 1000 nM; in experiment [5] (setting [8]), 100 to 1000 nM; in experiment [6] (MTAP-deleted cell line) it was more than 10000 nM. The MTAP intact/deleted ratio entry in experiment [5] is recorded as “A (an IC50 ratio greater than or equal to 10 fold)”.

Take `C[C@@H]1C[C@@H](F)[C@@H](c2ccc(F)cc2)N(C(=O)C(=O)Nc2cncc(C(N)=O)c2)C1` (racemic) [Compound 898, 5-[[2-[(2R,3R,5R)-3-fluoro-2-(4-fluorophenyl)-5-methyl-1-piperidyl]-2-oxo-acetyl]amino]pyridine-3-carboxamide]: the IC50 was 50 to 500 nM in experiment [1]; more than 500 nM in experiment [2]; 50 to 500 nM in experiment [3]; more than 1000 nM in experiment [4]; 100 to 1000 nM in experiment [5] (setting [8]); 1000 to 10000 nM in experiment [6] (MTAP-deleted cell line). Besides, in experiment [5], the MTAP intact/deleted ratio result is recorded as “A (an IC50 ratio greater than or equal to 10 fold)”.

In the case of `Cc1cc(NC(=O)C(=O)N2CC[C@H](N(C)C)C[C@H]2c2ccccc2)cnc1N` (racemic) [Compound 906], the IC50 in experiment [1] was more than 500 nM; in experiment [2], 50 to 500 nM; in experiment [3], 50 to 500 nM; in experiment [4], more than 1000 nM; in experiment [5] (setting [8]) it was more than 1000 nM; in experiment [6] (MTAP-deleted cell line), more than 10000 nM. Moreover, the MTAP intact/deleted ratio result in experiment [5] was “C (an IC50 ratio of less than 3 fold)”.

On to `CNc1ccc([C@@H]2CC[C@@H](C)CN2C(=O)C(=O)Nc2cncc(C(N)=O)c2)nc1` (racemic) [Compound 907, 5-[[2-[(2R,5S)-5-methyl-2-[5-(methylamino)-2-pyridyl]-1-piperidyl]-2-oxo-acetyl]amino]pyridine-3-carboxamide], for which the IC50 in experiment [1] was 50 to 500 nM; in experiment [2] it was 50 to 500 nM; in experiment [3], 50 to 500 nM; in experiment [4], more than 1000 nM; in experiment [5] (setting [8]), less than 100 nM; in experiment [6] (MTAP-deleted cell line), 1000 to 10000 nM. For the same compound, in experiment [5], the MTAP intact/deleted ratio result is “A (an IC50 ratio greater than or equal to 10 fold)”.

Turning to `CCc1cc(NC(=O)C(=O)N2C[C@H](C)CC[C@H]2c2cccc3[nH]ncc23)cnc1N` (racemic) [Compound 911, N-(6-amino-5-ethyl-3-pyridyl)-2-[(2S,5R)-2-(1H-indazol-4-yl)-5-methyl-1-piperidyl]-2-oxo-acetamide], the IC50 is more than 500 nM in experiment [1]; more than 500 nM in experiment [2]; more than 500 nM in experiment [3]; more than 1000 nM in experiment [4]; more than 1000 nM in experiment [5] (setting [8]); more than 10000 nM in experiment [6] (MTAP-deleted cell line). The MTAP intact/deleted ratio result in experiment [5] is reported as “C (an IC50 ratio of less than 3 fold)”.
